Measured values published in PubChem BioAssay AID2060358 (Molecular Pharmacology Branch, DTP, NCI, 2025).
Values joined by “and” are separate entries in the source; they are usually repeats but may differ in a detail not shown here. Equal values may be shown once.

System: 254851-301-R-J1-PDC spheroids, viability % test/control
Experiment: Anticancer human tumor 254851-301-R-J1-PDC patient-derived colon carcinoma cell line growth inhibition [TAK]
Conditions: spheroids with HUVEC and MSC; for viability, T/C: stronger effect = lower value
Excerpt: Combinatorial screen of targeted agents with TAK-243 and ipatasertib in multi-cell type tumor spheroids
A high-throughput screen of multi-cell type tumor spheroids was designed to identify active combinations of targeted small molecules and TAK-243 or ipatasertib. Complex spheroids include a stromal component modeled by human endothelial cells (HUVEC) and fibroblasts modeled by human mesenchymal stem cells (MSCs). The concentration ranges selected for each drug and investigational agent were based upon clinically achievable concentrations if the clinical Cmax of the agent was known.
Compounds. The drugs and investigational agents: TAK-243 (785004), ipatasertib (767898), everolimus (733504), selumetinib (741078), bortezomib (756655), trametinib (758246), ixazomib (758254), vemurafenib (761431), dabrafenib (764134), sapanisertib (764658), alpelisib (765974), and copanlisib (816437), were obtained from the National Cancer Institute (NCI) Developmental Therapeutics Program Chemical Repository. The FDA-approved anticancer drug set is available from the NCI Developmental Therapeutics Program. […] The stock solutions were prepared in dimethyl sulfoxide (DMSO, Sigma-Aldrich, St. Louis, MO, cat. D2650) at 800-fold the tested concentration and stored at -70 degrees C prior to their use. All drugs and investigational agents were tested over a range starting from a high concentration at or near the clinical Cmax and decreasing in half-log increments. If the clinical Cmax for an agent had not been determined, the highest concentration tested was 10 microM.
NCI60 Cell Culture. NCI60 cell lines were obtained from the NCI Developmental Therapeutics Program Tumor Repository. For each lot of cells, the Repository performed Applied Biosystems AmpFLSTR Identifiler testing with PCR amplification to confirm consistency with the published Identifier STR profile for each cell line. Cells were kept in continuous culture for no more than 20 passages. The optimal seeding densities for each of the cell lines at each time point assessed were determined prior to performing the concentration response studies. Briefly, the NCI60 human tumor lines were grown as monolayers in RPMI 1640 medium supplemented with 10% FBS and 2 mmol/L L-glutamine.
An additional 2 lines were from the NCI60 cell line panel including melanomas, MALME-3M and SK-MEL-2. Pooled donor human umbilical vein endothelial cells (HUVEC, Lonza, cat. CC-2519) and human mesenchymal stem cells (hMSC, Lonza, cat. PT-2501) were purchased from Lonza (Walkersville, MD).
PDMR cell lines were grown in complete medium (DC medium): Dulbecco's modified Eagle's medium (DMEM)/F12 supplemented with 5% fetal bovine serum (FBS), 2 mM L-glutamine, 100 U/mL penicillin and 100 µg/ml streptomycin, 0.4 µg/ml hydrocortisone, 10 ng/ml epidermal growth factor (EGF) recombinant human protein, 24 µg/mL adenine, and 0.1 mg/mL primocin. During culture from frozen stock vials, PDMR cells were cultured in the same medium containing 10 µM Y-27632 (see Table 3). The PDCs were cultured in complete DMEM/F12 media without 10 microM Y-27632 dihydrochloride for at least two passages prior to the screen. The pooled donor HUVEC and hMSC were cultured in endothelial cell growth medium 2 (PromoCell, Heidelberg, Germany, cat. C-22011) and mesenchymal stem cell growth medium 2 (PromoCell, cat. C-28009), respectively. For all experiments, HUVEC and hMSC were used at passages </=5.
For the pre-screen, cell seeding densities were determined from a titration spanning the range from 5,000 to 313 cells per well. The mct-spheroids including 60% malignant cells, 25% HUVEC and 15% MSC dispensed as a mixture into U-bottom Ultra-Low Attachment 384-well plates (Corning, NY)
High-throughput Drug Combination Screening.
Prior to their inoculation into 384-well plates, malignant cells, HUVEC, and hMSC were removed from T flasks using TrypLE express (Thermo Fisher Scientific, cat. 12605036) and harvested by centrifugation for 5 min at 233 x g. […]
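Note: spheroids exposed to drugs for seven days before viability readout.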

CC(=O)Nc1cccc(-n2c(=O)n(C3CC3)c(=O)c3c(Nc4ccc(I)cc4F)n(C)c(=O)c(C)c32)c1
viability, T/C (compound 94.9 pM): 117% and 114%
viability, T/C (compound 0.0003 µM): 114% and 116%
viability, T/C (compound 0.000949 µM): 105% and 107%
viability, T/C (compound 0.003 µM): 117% and 99%
viability, T/C (compound 0.00949 µM): 97.5% and 83.9%
viability, T/C (compound 0.03 µM): 16.8% and 18.9%
IC50 (curve of compound): 18.7 nM and 17 nM

CC(C)(C)c1nc(-c2cccc(NS(=O)(=O)c3c(F)cccc3F)c2F)c(-c2ccnc(N)n2)s1
viability, T/C (compound 0.0316 µM): 116% and 118%
viability, T/C (compound 0.1 µM): 105%
viability, T/C (compound 0.316 µM): 92.3% and 86.4%
viability, T/C (compound 1 µM): 82.1% and 82.5%
viability, T/C (compound 3.16 µM): 86.8% and 82.2%
viability, T/C (compound 10 µM): 80.3% and 77.6%
IC50 (curve of compound): > 10000 nM

CC(C)CC(NC(=O)C(Cc1ccccc1)NC(=O)c1cnccn1)B(O)O (configuration not stated)
viability, T/C (compound 31.6 pM): 118% and 114%
viability, T/C (compound 0.0001 µM): 107%
viability, T/C (compound 0.000316 µM): 111% and 101%
viability, T/C (compound 0.001 µM): 98.9% and 100%
viability, T/C (compound 0.00316 µM): 98.5% and 99.1%
viability, T/C (compound 0.01 µM): 75.7% and 80.8%
IC50 (curve of compound): > 10 nM

CC(C)CC(NC(=O)CNC(=O)c1cc(Cl)ccc1Cl)B1OC(=O)CC(CC(=O)O)(C(=O)O)O1 (configuration not stated)
viability, T/C (compound 0.000316 µM): 110% and 112%
viability, T/C (compound 0.001 µM): 110%
viability, T/C (compound 0.00316 µM): 96.8% and 99.7%
viability, T/C (compound 0.01 µM): 94.7% and 102%
viability, T/C (compound 0.0316 µM): 78.2%
viability, T/C (compound 0.1 µM): 18.6% and 24.4%
IC50 (curve of compound): 53.2 nM and 58.1 nM

CC(C)NCC(C(=O)N1CCN(c2ncnc3c2C(C)CC3O)CC1)c1ccc(Cl)cc1 (configuration not stated)
viability, T/C (compound 0.3 µM): 91.8% [middle of 10 runs]
viability, T/C (compound 0.949 µM): 91.8% [middle of 10 runs]
viability, T/C (compound 3 µM): 95% [middle of 10 runs]
viability, T/C (compound 9.49 µM): 91.9% [middle of 10 runs]
viability, T/C (compound 30 µM): 86% [middle of 10 runs]
IC50 (compound alone, run of 02/28/2020): > 30000 nM
IC50 (compound alone, run of 03/19/2020): > 30000 nM

CC(C)n1nc(-c2ccc3oc(N)nc3c2)c2c(N)ncnc21
viability, T/C (compound 0.000316 µM): 125% and 110%
viability, T/C (compound 0.001 µM): 104% and 109%
viability, T/C (compound 0.00316 µM): 89.8% and 90.4%
viability, T/C (compound 0.01 µM): 76.5% and 81.7%
viability, T/C (compound 0.0316 µM): 55.7% and 52.2%
viability, T/C (compound 0.1 µM): 34.5% and 34.2%
IC50 (curve of compound): 42.5 nM and 40.3 nM

CCCS(=O)(=O)Nc1ccc(F)c(C(=O)c2c[nH]c3ncc(-c4ccc(Cl)cc4)cc23)c1F
viability, T/C (compound 0.316 µM): 109% and 106%
viability, T/C (compound 1 µM): 93.3% and 90.5%
viability, T/C (compound 3.16 µM): 84.6% and 79.4%
viability, T/C (compound 10 µM): 72.3% and 77.4%
viability, T/C (compound 31.6 µM): 73.7% and 71.4%
viability, T/C (compound 100 µM): 63.9% and 73.8%
IC50 (curve of compound): > 100000 nM

COC1CC2CCC(C)C(O)(O2)C(=O)C(=O)N2CCCCC2C(=O)OC(C(C)CC2CCC(OCCO)C(OC)C2)CC(=O)C(C)C=C(C)C(O)C(OC)C(=O)C(C)CC(C)C=CC=CC=C1C (configuration not stated)
viability, T/C (compound 0.000316 µM): 114% and 108%
viability, T/C (compound 0.001 µM): 109% and 92%
viability, T/C (compound 0.00316 µM): 101% and 89.6%
viability, T/C (compound 0.01 µM): 101% and 91.6%
viability, T/C (compound 0.0316 µM): 96% and 85.4%
viability, T/C (compound 0.1 µM): 98.1% and 84%
IC50 (curve of compound): > 100 nM

COc1c(OCCCN2CCOCC2)ccc2c3n(c(=NC(=O)c4cnc(N)nc4)nc12)CCN3
viability, T/C (compound 0.00316 µM): 110% and 106%
viability, T/C (compound 0.01 µM): 96.2% and 96.4%
viability, T/C (compound 0.0316 µM): 87.8% and 82.2%
viability, T/C (compound 0.1 µM): 78% and 71.7%
viability, T/C (compound 0.316 µM): 75.6% and 65.8%
viability, T/C (compound 1 µM): 59.5% and 56.5%
IC50 (curve of compound): > 1000 nM

Cc1nc(NC(=O)N2CCCC2C(N)=O)sc1-c1ccnc(C(C)(C)C(F)(F)F)c1 (configuration not stated)
viability, T/C (compound 0.0316 µM): 123% and 110%
viability, T/C (compound 0.1 µM): 103% and 110%
viability, T/C (compound 0.316 µM): 95.7% and 91.7%
viability, T/C (compound 1 µM): 92.6% and 92.3%
viability, T/C (compound 3.16 µM): 84% and 79.1%
viability, T/C (compound 10 µM): 70.8% and 71.9%
IC50 (curve of compound): > 10000 nM

Cn1cnc2c(F)c(Nc3ccc(Br)cc3Cl)c(C(=O)NOCCO)cc21
viability, T/C (compound 0.00949 µM): 119% and 114%
viability, T/C (compound 0.03 µM): 120% and 117%
viability, T/C (compound 0.0949 µM): 105% and 117%
viability, T/C (compound 0.3 µM): 103% and 98.6%
viability, T/C (compound 0.949 µM): 76.3% and 84.4%
viability, T/C (compound 3 µM): 12.5% and 22.5%
IC50 (curve of compound): 1510 nM and 1760 nM
